Results taken from PubChem BioAssay (NCI).
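Exposure lasted 48 hours, with cells grown in 96-well plates and compounds tested at five concentrations. TGI: concentration producing complete growth inhibition.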

Key:
Experiment in all cases: NCI tumour cell line growth inhibition, 48 h
COLO 205 colon = tested on: COLO 205 colon
HCT-116 colon = tested on: HCT-116 colon
HL-60(TB) leukemia = tested on: HL-60(TB) leukemia
HOP-62 NSCLC = tested on: HOP-62 NSCLC
K-562 leukemia = tested on: K-562 leukemia
LOX IMVI melanoma = tested on: LOX IMVI melanoma
SK-MEL-2 melanoma = tested on: SK-MEL-2 melanoma
SN12C renal = tested on: SN12C renal
SNB-19 CNS = tested on: SNB-19 CNS
MCF7 breast = tested on: MCF7 breast

Compound	TGI (COLO 205 colon)	TGI (HCT-116 colon)	TGI (HL-60(TB) leukemia)	TGI (HOP-62 NSCLC)	TGI (K-562 leukemia)	TGI (LOX IMVI melanoma)	TGI (SK-MEL-2 melanoma)	TGI (SN12C renal)	TGI (SNB-19 CNS)	TGI (MCF7 breast)
O=C1Nc2ccccc2Nc2nc3cccccc-3c21	> 100 µM	> 100 µM	> 100 µM	> 100 µM	> 100 µM	> 100 µM	> 100 µM	> 100 µM	> 100 µM	–
CC(C)OP(=O)(OC(C)C)/C(=N/N)NNc1ccc([N+](=O)[O-])cc1	> 100 µM	> 100 µM	> 100 µM	> 100 µM	> 100 µM	> 100 µM	> 100 µM	> 100 µM	> 100 µM	–
Cc1ccc(CS(=O)(=O)C/N=c2\sc3ccccc3nc2/C=C(\O)c2ccc(Cl)cc2)cc1	> 10 µM	> 10 µM	–	> 10 µM	> 10 µM	> 10 µM	–	> 10 µM	> 10 µM	> 10 µM
COc1ccc(C(C2C(=O)N(C)C(=O)N(C)C2=O)C(F)(F)C(=O)N(C)C)cc1 (centres undefined)	> 100 µM	> 100 µM	–	> 100 µM	–	> 100 µM	> 100 µM	–	> 100 µM	> 100 µM
CC(C)C(=O)/C=C/c1ccc(Cl)cc1	59.9 µM	11.5 µM	28.8 µM	–	15.6 µM	22.2 µM	35.4 µM	21.7 µM	28.1 µM	–
COC(=O)N/N=C/c1oc(-c2ccccc2)c(-c2ccccc2)c1[N+](=O)[O-]	> 100 µM	> 100 µM	> 100 µM	> 100 µM	> 100 µM	> 100 µM	–	> 100 µM	> 100 µM	–
COc1ccc(N[C@H](CS(=O)c2ccc(C)cc2)C(F)(F)C(F)(F)F)cc1 (some centres undefined)	> 100 µM	> 100 µM	> 100 µM	> 100 µM	> 100 µM	> 100 µM	–	> 100 µM	> 100 µM	> 100 µM
CSc1ccc2c(cc1=O)C(NC(=O)c1ccc(OC(C)=O)cc1)CCc1cc(O)c(O)c(O)c1-2 (centres undefined)	30.8 µM	31.1 µM	21.9 µM	> 100 µM	7.53 µM	–	49.7 µM	31.6 µM	> 100 µM	–
COc1ccc2c(c1)nc1n2C(c2c(F)cccc2Cl)SC1 (centres undefined)	> 54.9 µM	> 37 µM	–	> 44.6 µM	> 100 µM	> 61.6 µM	> 27.7 µM	> 100 µM	> 58.7 µM	> 34.8 µM
CC(C)N=C(NC#N)NS(=O)(=O)c1cnccc1Nc1ccc(Cl)cc1	> 100 µM	> 100 µM	–	> 100 µM	> 100 µM	–	> 100 µM	> 100 µM	> 100 µM	> 100 µM
CCn1c(=O)ccc2ccc(N(CCO)CCO)nc21	> 100 µM	> 100 µM	–	> 100 µM	> 100 µM	–	> 100 µM	> 100 µM	> 100 µM	> 100 µM
COC(=O)C1C2C=CC(C2)N1S(=O)(=O)c1ccccc1 (centres undefined)	> 100 µM	> 100 µM	–	> 100 µM	> 100 µM	–	> 100 µM	> 100 µM	> 100 µM	> 100 µM
COC(=NCCC1=CCCCC1)OC	31.2 µM	> 100 µM	–	> 100 µM	> 100 µM	–	> 100 µM	–	> 100 µM	> 100 µM
O=C(Nc1ccc(Cl)cc1)/C(Cc1cccc[n+]1[O-])=N\Nc1ccc([N+](=O)[O-])cc1[N+](=O)[O-]	> 100 µM	> 100 µM	> 100 µM	> 100 µM	> 100 µM	> 100 µM	> 100 µM	> 100 µM	> 100 µM	–
CC[C@@H](C(=O)[C@@H](C)[C@@H](O)[C@H](C)CCc1ccc(C)c(O)c1C(=O)O)[C@H]1O[C@](CC)([C@H]2CC[C@](O)(CC)[C@H](C)O2)C[C@@H]1C	4.76 µM	9.65 µM	1.54 µM	4.24 µM	3.05 µM	12 µM	3.82 µM	10 µM	5.95 µM	–
CC(=O)OC1CC2(c3ccccc3)C(=O)c3ccccc3N2O1 (centres undefined)	> 100 µM	> 100 µM	> 100 µM	> 100 µM	> 100 µM	–	–	> 100 µM	> 100 µM	–
CCCCCC(=O)OCC1(CO)C/C(=C\CC(C(C)C)C(C)C)C(=O)O1 (centres undefined)	53.5 µM	> 100 µM	–	> 100 µM	77.5 µM	70 µM	> 100 µM	> 100 µM	> 100 µM	> 100 µM
O=C(N/N=C1/C(=O)c2c3ccccc3cc3cccc1c23)c1cccc(Cl)c1	> 100 µM	> 100 µM	> 100 µM	> 100 µM	> 100 µM	> 100 µM	> 100 µM	> 100 µM	> 100 µM	–
